Here are results for two molecules from US10213412B2, “Modulators of CA2+ release-activated CA2+ (CRAC) channels and pharmaceutical uses thereof” (Vivreon Biosciences, LLC, priority 2015, dated 2019).

Like-named read-outs stand apart in the source and are kept apart here.

Series [1] relates to experimental autoimmune encephalomyelitis. Description: in vivo. The format is in vivo, C57/Bl6 mice.
The nature of series [2]: in vivo. It is filed as in vivo, C57/Bl6 mice. The following applies: C57/Bl6, mouse, in vivo, ip, 5 mg/kg.
Series [3] is described as follows: Concentrations of Compound 1 in mouse plasma and brain after s.c. administration. It is filed as in vivo. To be noted: C57/BL6 mice. Here is the method:
Compound 1 was administered s.c. to C57/BL6 mice and plasma and brain samples were processed and analyzed using standard bioanalytical protocols. Three mice were sacrificed at time points: 15 min, 1 hr and 4 hr. Blood was collected into lithium heparin tubes for plasma collection. Brain samples were homogenized prior to extraction using a FastPrep-24 tissue homogenizer. Plasma and brain homogenates were extracted by protein precipitation with acetonitrile containing verapamil as internal standard (IS). After vortexing for 10 min, samples were transferred to a 96 well filter plate and filtered using a centrifuge. Filtrates were analyzed by LC/MS/MS. The compounds were quantified with software using calibration curves. Compound 1 plasma (▪) and brain (•) concentrations are presented.

Series [4] can be described thus: In vivo pharmacokinetics in rat. Details: species or system Sprague Dawley rat. Here is the method:
Compound 1 was administered p.o. (▪) or i.v. (•) to a nine week old male Sprague Dawley rat (FIG. 6). For survival blood collection, 250-350 μL blood samples were collected via jugular vein (JUGVEIN) cannula at proposed time points per study protocol and recorded. Blood was collected pre-dose and at 15 & 30 min, 1, 2, 4, 12, 24 & 48 hr after Compound 1 administration. Blood was collected into lithium heparin tubes for plasma collection. Calibration standards and study samples were processed for LC/MS/MS analysis by precipitating 40 μL of each sample with two volumes of ice cold Internal Standard Solution (acetonitrile containing 50 ng/mL of dextromethorphan, 5 ng/mL diphenhydramine and 125 ng/mL diclofenac). The precipitated samples were centrifuged at 6100 g for 30 minutes. Following centrifugation, an aliquot of each supernatant was transferred to an autosampler plate and diluted with an equal volume of 0.2% formic acid in water. Processed study samples were analyzed using LC/MS/MS.

In series [5] the target is T1, recombinant human Orai1 and recombinant human STIM1 (Homo sapiens, UniProt Q96D31).
T1 construct: expressed in transfected cells; host or cells: human embryonic kidney 293 cells
Kind of series: Ca^2+ signaling assay in HEK293 cells transfected with Orai1 and STIM1 (Fura-2). The format is cell-based. The following applies: HEK293 transfected with Orai1/STIM1, 10 μM Compound 1, single cell Fura-2 fluorescence. The method, then:
FIG. 8 depicts Compound 1 as a modulator of store-operated Ca^2+ (SOC) channels. The white rectangle represents a 2 mM external Ca^2+ concentration solution, the hashed rectangle represents a 0 mM external Ca2+ concentration solution, the slashed rectangle represents a 0 mM external Ca^2+ concentration solution with 2 μM thapsigargin, the grey rectangle represents 10 μM Compound 1 in a 2 mM external Ca^2+ concentration solution, and the black rectangle represents […] 2-aminoethoxydiphenyl borate in a 2 mM external Ca^2+ concentration solution. Cell #1 and Cell #2 represent two separate human embryonic kidney 293 cells successfully transfected with recombinant human Orai1 and recombinant human STIM1.
Compound 1 was screened for inhibition of Ca^2+ signaling by examining the intracellular Ca^2+ response in the presence of Compound 1 (FIG. 8). First, human embryonic kidney 293 cells were transfected by lipofectamine with recombinant human Orai1 and recombinant human STIM1. Recombinant human Orai1 was genetically tagged with enhanced green fluorescent protein to label successfully transfected cells. Cells were plated on coverslips and loaded with 2 μM of the Ca^2+ indicator dye, Fura-2, to allow for detection of intracellular Ca^2+ concentration. Cellular fluorescence was determined by alternating fluorescent excitation at 340 and 380 nanometers.

Series [6] relates to MDR1. Description: MDCK-MDR1 permeability assay. To be noted: dog. The format is in vitro ADME, canine. Here is the method:
Compound 1 was evaluated for permeability across polarized Madin-Darby canine kidney-multidrug resistance protein 1 (MDCK-MDR1) epithelial monolayers. MDCK-MDR1 cells grown in tissue culture flasks were trypsinized, suspended in medium, and the suspensions were applied to wells of a Millipore 96 well Caco-2 plate (FIG. 7). The cells were allowed to grow and differentiate for five days and confluence was confirmed. For Apical to Basolateral (A→B) permeability, Compound 1 was added to the apical (A) side and amount of permeation is determined on the basolateral (B) side; for Basolateral to Apical (B→A) permeability, the Compound 1 was added to the B side and the amount of permeation was determined on the A side and analyzed by LC/MS/MS.

The test system of series [7] is Human Jurkat T cells. Kind of series: Cancer cell viability assay, Jurkat. The format is cell-based. The following applies: 120 hours, flow cytometric light scatter. Here is the method: (§1) Compound 2 was screened for inhibition of cancer cell survival by quantifying cellular death in the presence of Compound 2 (FIG. 4). Human Jurkat T cells (▪), an immortalized line of human acute T cell lymphoblastic leukemia; Ramos B cells (•), an immortalized line of human Burkitt's lymphoma; and primary human T cells (▴) isolated from the peripheral blood of a healthy, consenting donor were cultured in the presence Compound 2 to test for cellular viability and cell death. Cells were cultured in standard culture conditions, and primary human T cells were also activated with 4 μg/mL immobilized anti-CD3 (clone: OKT3) and 1 μg/mL soluble anti-CD28 (clone: CD28.2) antibodies and 0.2 ng/mL recombinant human IL-2. Cell viability was assayed through flow cytometric analysis of cellular light scatter following 72 hours for primary human or 120 hours for Jurkat and Ramos in standard culture conditions. Viable cell percentage was analyzed as the percent decrease of viable cells compared to a control well with no Compound 2 using a standard flow cytometry lymphocyte analysis gate of forward and side scatter.
In general terms: In flow cytometry, cells or beads pass a laser one at a time.

The subject of series [8] is Ca^2+ influx in murine cerebellum CRL-2540 cells (mouse microglia). Kind of series: Ca^2+ signaling assay in microglia activated with thapsigargin (Fluo-4). The format is cell-based. Here is the method: (§2) Compound 2 was screened for inhibition of Ca^2+ signaling by examining the intracellular Ca^2+ response in the presence of Compound 2 (FIG. 5). First, the murine cerebellum CRL-2540 cells, an immortalized line of mouse microglia, were loaded with the 2 μM of the Ca^2+ indicator dye, Fluo-4, to allow for detection of Ca^2+ influx. CRL-2540 cells were then cultured with Compound 2 and activated with 2 μM thapsigargin to induce Ca^2+ influx. Immediately after activation, Ca^2+ influx was determined by measuring CRL-2540 fluorescence using a flow cytometer. Maximal Ca^2+ influx occurred with a 0.52 fold increase in mean Fluo-4 fluorescence intensity compared to an unstimulated control.

In series [9] the test system is Ca^2+ influx in human Jurkat T cells. Kind of series: Ca^2+ signaling assay in Jurkat T cells activated with PHA-P (Fluo-4, flow cytometer). It is filed as cell-based. The method, then: as §2, with “2).” for “5).”, “human Jurkat T” for “murine cerebellum CRL-2540”, “human acute T cell lymphoblastic leukemia,” for “mouse microglia,”, “Jurkat” for “CRL-2540”, “Phytohemagglutinin PHA-P” for “2 μM thapsigargin”, “2.9” for “0.52”

Series [10] has as its system primary human T cells. Description: Cell viability assay, primary human T cells. The following applies: primary human T cells from a healthy donor, activated, 72 hours. The format is cell-based. Here is the method: as §1
For series [11], the system named is primary human T cells. Kind of series: Primary human T cell proliferation assay (CFSE dilution). It is filed as cell-based. The following applies: 72 hours. Here is the method:
Compound 2 was screened for inhibition of primary human T cell proliferation by quantifying cellular divisions in the presence of Compound 2 (FIG. 3). First, a 96-well plate was coated with 4 μg/mL anti-CD3 antibody (clone: OKT3) in phosphate buffered saline overnight at 4 degrees Celsius. Primary human T cells were then isolated from the peripheral blood of a healthy, consenting donor using an antibody-based human T cell enrichment protocol. Human T cells were then stained with 1.75 μM of carboxyfluorescein succinimidyl ester, to allow for detection of cellular proliferation. Human T cells were then cultured with Compound 2 and activated with immobilized anti-CD3 and 1 μg/mL soluble anti-CD28 (clone: CD28.2) antibodies and 0.2 ng/mL recombinant human IL-2 to induce cellular proliferation through the NFAT and NF-κB transcription factor pathways. Proliferation was assayed through flow cytometric analysis of carboxyfluorescein succinimidyl ester dilution after 72 hours in standard culture conditions. Maximal proliferation occurred with a 3.9 fold increase in activation index compared to an unstimulated control.

In series [12] the test system is Ramos B cells. Description: Cancer cell viability assay, Ramos. The format is cell-based, human. To be noted: 120 hours, flow cytometric light scatter. Here is the method:
as §1

The mark [13] stands for this setting: male, Sprague Dawley, plasma, iv, 10000 ug/kg.
[14] abbreviates: male, Sprague Dawley, plasma, po, 10000 ug/kg.

T1 sequence (Q96D31 whole entry): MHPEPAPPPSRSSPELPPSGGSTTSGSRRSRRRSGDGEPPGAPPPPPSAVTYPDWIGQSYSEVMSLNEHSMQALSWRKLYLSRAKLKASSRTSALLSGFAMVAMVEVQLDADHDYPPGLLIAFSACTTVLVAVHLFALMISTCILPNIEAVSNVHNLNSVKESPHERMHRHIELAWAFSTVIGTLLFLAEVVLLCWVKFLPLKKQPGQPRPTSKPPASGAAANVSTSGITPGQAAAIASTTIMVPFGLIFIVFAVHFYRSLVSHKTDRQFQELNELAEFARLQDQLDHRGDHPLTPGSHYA

For orientation: AUC(0-inf) means the area under the concentration-time curve extrapolated to infinity. The low end stands for low exposure, the high end for high exposure. By AUC(0-t) is commonly meant the area under the concentration-time curve up to a stated or last time point. A low value points to low exposure. Usually Cmax stands for the maximum level reached in the sampled fluid or tissue. By MRT inf is commonly meant the average time that molecules of a dose stay in the body. As a reminder, the Tmax is the time at which the peak concentration occurs. As a reminder, the clearance is a measure of how efficiently the substance is removed, as volume per time. A higher clearance goes with efficient removal. The term efflux ratio denotes a quotient of directional permeabilities that is used to spot active efflux. As usually defined, the Papp A→B is the apparent permeability from the apical to the basolateral side of a cell layer. The low end stands for poor permeation, the high end for ready permeation. In general, Papp B→A refers to the apparent permeability from the basolateral to the apical side of a cell layer. `CC(C)(C)c1cc(CCC(=O)c2ccc[nH]2)cc(C(C)(C)C)c1O` [Compound 1, 3-(3,5-di-tert-butyl-4-hydroxyphenyl)-1-(1H-pyrrol-2-yl)propan-1-one]: the “Recovery of animals in the EAE model” value in series [1] (5 mg/kg i.p. daily starting on day −1) is on record as “enhanced recovery”. Besides, the “Neuroprotection (clinical score) compared to vehicle-treated mice” value in series [1] (5 mg/kg i.p. daily, p<0.05) is “significant neuroprotection”. Further, the concentration at 1 h in series [2] (Compound level in the brain) amounted to 38 ± 4 nM. In series [2] (Compound level in the plasma), this molecule yielded a concentration at 1 h of 23.3 ± 3.1 nM. The “Animal body weight and clinical observations” value in series [3] was “appeared normal”. In series [4] (setting [13]), the AUC(0-inf) came to 706 ng·h/mL, the AUC(0-t) came out at 694 ng·h/mL, the Cmax was found to be 837 ng/mL and the MRT inf worked out at 1.9 h. Further, in [4] (setting [13]), the Tmax turned out to be 0.25 h and the clearance is 236 mL/min/kg. For the same molecule, in series [4] (male, Sprague Dawley, plasma, iv, 10000 ug/kg, i.v., 10000 μg/kg, read-out: Terminal t½ (converted)), the half-life was 2.64 h. Also, the Vd in series [4] (male, Sprague Dawley, plasma, iv, 10000 ug/kg, i.v., 10000 μg/kg, read-out: VSS) was 26.9 L/kg. Moreover, in series [4] (setting [14]), the AUC(0-inf) was 747 ng·h/mL, the AUC(0-t) was determined as 679 ng·h/mL, the Cmax turned out to be 126 ng/mL and the Tmax was 2 h. Further, the bioavailability in series [4] (setting [14]) was found to be 106%. For the same molecule, in [4] (male, Sprague Dawley, plasma, po, 10000 ug/kg, p.o., 10000 μg/kg, read-out: T½ (converted)), the half-life is 3.27 h. Moreover, in [4] (p.o. or i.v., 10000 μg/kg), the “Animal body weight and clinical observations” value is on record as “appeared normal”. The “Modulation of store-operated Ca^2+ (SOC) channels” value in series [5] was “modulates store-operated Ca^2+ (SOC) channels”. Besides, the efflux ratio in series [6] turned out to be 1.6. For the same molecule, the Papp A→B in series [6] (Apical to Basolateral) came out at 1 ×10⁻⁶ cm/s. In [6] (Basolateral to Apical), the Papp B→A was 1.6 ×10⁻⁶ cm/s.

For `CC(C)(C)c1cc(CCC(=O)c2[nH]c(Cl)c(Cl)c2Cl)cc(C(C)(C)C)c1O` [Compound 2, 3-(3,5-di-tert-butyl-4-hydroxyphenyl)-1-(3,4,5-trichloro-1H-pyrrol-2-yl)propan-1-one], the entries for the “Cell viability in the presence of compound” value in series [7], in [10] and in series [12] were “decreased”, “did not decrease” and “decreased”, respectively. The “Maximal inhibition of Ca^2+ influx, fold increase compared to an unstimulated control” value in [8] (CRL-2540, thapsigargin, maximal influx 0.52 fold) turned out to be 0.19 fold; in series [9] (PHA-P, maximal influx 2.9 fold), 0.35 fold. For the same molecule, the IC50 in [8] (Mus musculus, CRL-2540 microglia, 2 μM thapsigargin, Fluo-4, read-out: IC50 of inhibition of Ca^2+ influx) is 10.9 µM; in series [9] (Homo sapiens, PHA-P activation, Fluo-4 fluorescence, read-out: IC50 of inhibition of Ca^2+ influx), 3.78 µM; in series [11] (Homo sapiens, T-cell, anti-CD3/anti-CD28/IL-2 activation, read-out: IC50 of inhibition of primary human T cell proliferation), 0.671 µM. The “Maximal inhibition of proliferation, fold increase in activation index compared to an unstimulated control” value in series [11] (maximal proliferation 3.9 fold) was 0.91 fold.
